Laboratory results as given in patent publication US20210061929A1, “ACTIVE-ENERGY-RAY-CURABLE COMPOSITION, ACTIVE-ENERGY-RAY-CURABLE INK, COMPOSITION STORED CONTAINER, TWO-DIMENSIONAL OR THREE-DIMENSIONAL IMAGE FORMING METHOD AND APPARATUS, CURED PRODUCT, AND DECORATED PRODUCT” (priority 2019, published 2021).

Key:
[1] = Skin sensitization test by local lymph node assay (LLNA), SI value of the materials; assay type: in vivo; conditions: for SI (skin sensitization SI value): material as such, local lymph node assay (LLNA) method
Method: The amine value of the dispersant polymer, a skin sensitization SI value indicating a skin sensitizing potential, and the colony count by Ames test indicating carcinogenicity were obtained in the manners described below.
The SI value was measured by a skin sensitization test according to a local lymph node assay (LLNA) method.
Oral toxicity was tested according to OECD test guideline TG423. […] Skin sensitizing potential was tested according to OECD test guideline TG442B.

[2] = assay type: cell-based; conditions: OECD test guideline TG471 (±S9 mix)
Method: (§1) As a safety test, AMES test was performed according to OECD test guideline TG471 (±S9 mix), and the result was negative. Oral toxicity was tested according to OECD test guideline TG423. […] Skin stimulation was tested according to OECD test guideline TG404, and the result was PII=0.5. Skin sensitizing potential was tested according to OECD test guideline TG442B.

[3] = Oral toxicity according to OECD test guideline TG423; assay type: in vivo
Method: as §1

[4] = assay type: in vivo; conditions: OECD test guideline TG404
Method: as §1

| Compound | SI (skin sensitization SI value) [1] | other results |
| --- | --- | --- |
| C=CC(=O)N(C)CC(=O)OC [Example A1-1, N-acryloyl-N-methylglycinemethyl ester] | (see Synthesis example 1) SI = 1.00 | SI value (skin sensitizing potential) ([1]; OECD test guideline TG442B): 1.00; Influence on the health of human bodies (conclusion of the safety tests) ([1]; in vivo, po): significantly uninfluential on the health of human bodies; AMES test result [2]: negative; LD50 ([3]; in vivo, po, 2000 mg/kg): ≥ 2000 mg/kg; Fatal cases (oral toxicity) ([3]; six cases): none of six cases was a fatal case; PII (skin stimulation) [4]: 0.5 |
| C=CC(=O)N(C)CC(=O)OCC [Example A1-2, N-acryloyl-N-methylglycineethyl ester] | (see Synthesis example 2) SI = 1.02 | – |
| C=CC(=O)N(C)C(C)C(=O)OC (stereo not shown) [Example A1-3, N-acryloyl-N-methylalaninemethyl ester] | (see Synthesis example 3) SI = 1.12 | – |
| C=C(C)C(=O)OCCOCCOC(=O)C(=C)C [Example A2-1] | Shin- Nakamura Chemical Co., Ltd. “2G” SI = 1.05 Ltd. | – |
| C=C(C)C(=O)OCC(CC)(COC(=O)C(=C)C)COC(=O)C(=C)C [Example A2-3] | Shin- Nakamura Chemical Co., Ltd. “TMPT” SI = 1.03 | – |
| C=C(C)C(=O)OCC(COC(=O)C(=C)C)OC(C)=O [Example A2-6, 2-acetyl-1,3-glycerol dimethacrylate] | (see Synthesis example 5) SI = 1.40 | – |
| C=C(C)C(=O)OCCO [Example A3-1, 2-hydroxyethyl methacrylate] | Tokyo Chemical Industry Co., Ltd. “2-hydroxyethyl methacrylate” SI = 1.26 | – |
| C=CC(=O)OCC(CC)(COC(=O)C=C)COC(=O)C=C [Example A4-1] | Toagosei Co., Ltd. “M-3547” SI = 3.42 | – |
| Isobornyl acrylate [Example A3-2] | Osaka Organic Chemical Industry Ltd. “Isobomyl acrylate” SI = 8.30 | SI (skin sensitization SI value) ([1]; listed as IBXA): 8.30 |
